Measured values published in patent US7291621B2, “Substituted biaryl amides C5a receptor modulators” (Neurogen Corporation, priority 2002, dated 2007).
pKi: −log10 of the molar value.

The molecules below were run against T1, C5a receptor (Homo sapiens, UniProt P21730) (assay: standard assay of C5a receptor mediated calcium mobilization). Conditions: Table I; asterisk = tested in C5a receptor mediated calcium mobilization assay; read-out: Ca2+ Mob.
T1 construct: endogenous in cells; host or cells: U937 cells differentiated with 1 mM dibutyryl cAMP
T1 sequence (P21730 1-350): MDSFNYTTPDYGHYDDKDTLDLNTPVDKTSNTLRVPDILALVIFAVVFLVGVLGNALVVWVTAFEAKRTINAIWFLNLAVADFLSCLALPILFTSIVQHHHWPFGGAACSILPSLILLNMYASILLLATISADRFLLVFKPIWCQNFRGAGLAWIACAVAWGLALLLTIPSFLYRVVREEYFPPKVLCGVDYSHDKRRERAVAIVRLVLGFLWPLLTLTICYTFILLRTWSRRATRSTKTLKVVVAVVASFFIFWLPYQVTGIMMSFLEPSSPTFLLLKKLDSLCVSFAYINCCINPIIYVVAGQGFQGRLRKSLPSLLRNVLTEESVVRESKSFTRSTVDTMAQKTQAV
Assay type: cell-based
Experimental: U937 cells are grown in differentiation media (1 mM dibutyrl cAMP in RPMI 1640 medium containing 10% fetal bovine serum) for 48 hrs at 37° C. then reseeded onto 96-well plates suitable for use in a FLIPR™ Plate Reader (Molecular Devices Corp., Sunnyvale Calif.). Cells are grown an additional 24 hours (to 70-90% confluence) before the assay. The cells are then washed once with Krebs Ringer solution. FLUO-3 calcium sensitive dye (Molecular Probes, Inc. Eugene, Oreg.) is added to 10 μg/mL and incubated with the cells at room temperature for 1 to 2 hours. The 96 well plates are then washed to remove excess dye. Fluorescence responses, measured by excitation at 480 nm and emission at 530 nm, are monitored upon the addition of human C5a to the cells to a final concentration of 0.01-30.0 nM, using the FLIPR™ device (Molecular Devices).
The calcium mobilization assay described above may be readily adapted for identifying test compounds that have agonist or antagonist activity at the human C5a receptor.
For example, in order to identify antagonist compounds, differentiated U937 cells are washed and incubated with Fluo-3 dye as described above. One hour prior to measuring the fluorescence signal, a subset of the cells is incubated with 1 μM of at least one compound to be tested. The fluorescence response upon the subsequent addition of 0.3 nM (final concentration) human recombinant C5a is monitored using the FLIPR™ plate reader. Antagonist compounds elicit at least a 2-fold decrease in the fluorescence response relative to that measured in the presence of human C5a alone. Preferred antagonist compounds elicit at least a 5-fold, preferably at least a 10-fold, and more preferably at least a 20-fold decrease in the fluorescence response relative to that measured in the presence of human C5a alone.
`O=C(c1ccccc1-c1ccc(F)cc1)N(Cc1ccccc1)Cc1ccccc1` [compound 34, N,N-dibenzyl4′-fluoro-1,1′-biphenyl-2-carboxamide] gave a pKi greater than 6.00. Molecule `CC(=O)Nc1cccc(-c2ccccc2C(=O)N(Cc2ccccc2)Cc2ccccc2)c1` [compound 35, 3′-(acetylamino)-N,N-dibenzyl-1,1′-biphenyl-2-carboxamide] has a pKi greater than 6.00. In the case of `O=C(c1ccccc1-c1ccc(OC(F)(F)F)cc1)N(Cc1ccccc1)Cc1ccccc1` [compound 36, N,N-dibenzyl-4′-(trifluoromethoxy)-1,1′-biphenyl-2-carboxamide], the pKi was greater than 6.00. Molecule `CSc1ccccc1-c1ccccc1C(=O)N(Cc1ccccc1)Cc1ccccc1` [compound 37, N,N-dibenzyl-2′-(methylthio)-1,1′-biphenyl-2-carboxamide] has a pKi greater than 6.00. Work on `CCSc1ccc(-c2ccccc2C(=O)N(Cc2ccccc2)Cc2ccccc2)cc1` [compound 38, N,N-dibenzyl-4′-(ethylthio)-1,1′-biphenyl-2-carboxamide] yielded a pKi greater than 6.00. `O=C(c1ccccc1-c1cccc(F)c1)N(Cc1ccccc1)Cc1ccccc1` [compound 39, N,N-dibenzyl-3′-fluoro-1,1′-biphenyl-2-carboxamide] gave a pKi greater than 6.00. With `Cc1ccc(-c2ccccc2C(=O)N(Cc2ccccc2)Cc2ccccc2)cc1C` [compound 40, N,N-dibenzyl-3′,4′-dimethyl-1,1′-biphenyl-2-carboxamide] the pKi was greater than 6.00. Molecule `O=C(c1ccccc1-c1ccsc1)N(Cc1ccccc1)Cc1ccccc1` [compound 41, N,N-dibenzyl-2-thien-3-ylbenzamide] has a pKi greater than 6.00. With `O=C(c1ccccc1-c1ccc(C(F)(F)F)cc1)N(Cc1ccccc1)Cc1ccccc1` [compound 42, N,N-dibenzyl-4′-(trifluoromethyl)-1,1′-biphenyl-2-carboxamide] the pKi was greater than 6.00. `COc1ccccc1-c1ccccc1C(=O)N(Cc1ccccc1)Cc1ccccc1` [compound 43, N,N-dibenzyl-2′-methoxy-1,1′-biphenyl-2-carboxamide] showed a pKi greater than 6.00. With `COc1ccc(-c2ccccc2C(=O)N(Cc2ccccc2)Cc2ccccc2)cc1` [compound 44, N,N-dibenzyl-4′-methoxy-1,1′-biphenyl-2-carboxamide] the pKi was greater than 6.00. In the case of `COc1ccc(-c2ccccc2C(=O)N(Cc2ccccc2)Cc2ccccc2)c(OC)c1` [compound 45, N,N-dibenzyl-2′,4′-dimethoxy-1,1′-biphenyl-2-carboxamide], the pKi was greater than 6.00. For `COc1ccc(-c2ccccc2C(=O)N(Cc2ccccc2)Cc2ccccc2)cc1OC` [compound 46, N,N-dibenzyl-3′,4 ′-dimethoxy-1,1′-biphenyl-2-carboxamide], the pKi was greater than 6.00. `O=C(c1ccccc1-c1ccccc1)N(Cc1ccccc1)Cc1ccccc1` [compound 47, N,N-dibenzyl-1,1′-biphenyl-2-carboxamide] gave a pKi greater than 6.00. In the case of `O=C(c1ccccc1-c1ccccc1Cl)N(Cc1ccccc1)Cc1ccccc1` [compound 48, N,N-dibenzyl-2′-chloro-1,1′-biphenyl-2-carboxamide], the pKi was greater than 6.00. `O=C(c1ccccc1-c1cccc(Cl)c1)N(Cc1ccccc1)Cc1ccccc1` [compound 49, N,N-dibenzyl-3′-chloro-1,1′-biphenyl-2-carboxamide] gave a pKi greater than 6.00. `O=C(c1ccccc1-c1ccc(Cl)cc1)N(Cc1ccccc1)Cc1ccccc1` [compound 50, N,N-dibenzyl-4′-chloro-1,1′-biphenyl-2-carboxamide] showed a pKi greater than 6.00. `O=C(c1ccccc1-c1cccc(Cl)c1Cl)N(Cc1ccccc1)Cc1ccccc1` [compound 51, N,N-dibenzyl-2′,3′-dichloro-1,1′-biphenyl-2-carboxamide] gave a pKi greater than 6.00. For `O=C(c1ccccc1-c1ccc(Cl)cc1Cl)N(Cc1ccccc1)Cc1ccccc1` [compound 52, N,N-dibenzyl-2′,4′-dichloro-1,1′-biphenyl-2-carboxamide], the pKi was greater than 6.00. With `Cc1ccccc1-c1ccccc1C(=O)N(Cc1ccccc1)Cc1ccccc1` [compound 53, N,N-dibenzyl-2′-methyl-1,1′-biphenyl-2-carboxamide] the pKi was greater than 6.00. `Cc1cccc(-c2ccccc2C(=O)N(Cc2ccccc2)Cc2ccccc2)c1` [compound 54, N,N-dibenzyl-3′-methyl-1,1′-biphenyl-2-carboxamide] was tested, and the pKi was greater than 6.00. For `Cc1ccc(-c2ccccc2C(=O)N(Cc2ccccc2)Cc2ccccc2)cc1` [compound 55, N,N-dibenzyl-4′-methyl-1,1′-biphenyl-2-carboxamide], the pKi was greater than 6.00. In the case of `O=C(c1ccccc1-c1cc(Cl)cc(Cl)c1)N(Cc1ccccc1)Cc1ccccc1` [compound 56, N,N-dibenzyl-3′,5′-dichloro-1,1′-biphenyl-2-carboxamide], the pKi was greater than 6.00. For `Cc1ccc(-c2ccccc2C(=O)N(Cc2ccccc2)C2Cc3ccccc3C2)cc1` [compound 58, N-benzyl-N-(indan-2-yl)4′-methyl-1,1′-biphenyl-2-carboxamide], the pKi was greater than 6.00. For `Cc1csc(-c2ccccc2C(=O)N(Cc2ccccc2)C2Cc3ccccc3C2)c1` [compound 59, N-benzyl-N-(indan-2-yl)-2-(4-methylthien-2-yl)benzamide], the pKi was greater than 6.00. Work on `O=C(c1ccccc1-c1ccccc1)N(Cc1ccccc1)C1Cc2ccccc2C1` [compound 60, N-benzyl-N-(indan-2-yl)-1,1′-biphenyl-2-carboxamide] yielded a pKi greater than 6.00. Work on `O=C(c1ccccc1-c1ccccc1F)N(Cc1ccccc1)C1CCc2ccccc21` (stereo not drawn) [compound 61, N-benzyl-N-(indan-1-yl)-2′-fluoro-1,1′-biphenyl-2-carboxamide] yielded a pKi greater than 6.00. `COc1cccc(-c2ccccc2C(=O)N(Cc2ccccc2)C2Cc3ccccc3C2)c1` [compound 62, N-benzyl-N-(indan-2-yl)-3′-methoxy-1,1′-biphenyl-2-carboxamide] was tested, and the pKi was greater than 6.00. Work on `O=C(c1ccccc1-c1cccs1)N(Cc1ccccc1)C1Cc2ccccc2C1` [compound 63, N-benzyl-N-(indan-2-yl)-2-thien-2-ylbenzamide] yielded a pKi greater than 6.00. `COc1cccc(-c2ccccc2C(=O)N(Cc2ccc3c(c2)OCO3)C2Cc3ccccc3C2)c1` [compound 64, N-(1,3-benzodioxol-5-ylmethyl)-N-(indan-2-yl)-3′-methoxy-1,1′-biphenyl-2-carboxamide] showed a pKi greater than 6.00. `O=C(c1cccc2c1-c1ccccc1C2)N(Cc1ccc2c(c1)OCO2)C1Cc2ccccc2C1` [compound 65, N-(1,3-benzodioxol-5-ylmethyl)-N-(indan-2-yl)-9H-fluorene-4-carboxamide] gave a pKi greater than 6.00. Molecule `COc1ccc(-c2ccccc2)c(C(=O)N(Cc2ccccc2)C2Cc3ccccc3C2)c1` [compound 66, N-benzyl-N-(indan-2-yl)-4-methoxy-1,1′-biphenyl-2-carboxamide] has a pKi greater than 6.00. `COc1cccc(-c2ccccc2)c1C(=O)N(Cc1ccccc1)C1Cc2ccccc2C1` [compound 67, N-benzyl-N-(indan-2-yl)-3-methoxy-1,1′-biphenyl-2-carboxamide] gave a pKi greater than 6.00. `O=C(c1cc(O)ccc1-c1ccccc1)N(Cc1ccccc1)C1Cc2ccccc2C1` [compound 68, N-benzyl-N-(indan-2-yl)-4-hydroxy-1,1′-biphenyl-2-carboxamide] was tested, and the pKi was greater than 6.00. For `O=C(c1c(O)cccc1-c1ccccc1)N(Cc1ccccc1)C1Cc2ccccc2C1` [compound 69, N-benzyl-N-(indan-2-yl)-3-hydroxy-1,1′-biphenyl-2-carboxamide], the pKi was greater than 6.00. In the case of `COc1ccc(-c2ccc(C)s2)c(C(=O)N(Cc2ccccc2)C2Cc3ccccc3C2)c1` [compound 70, N-benzyl-N-(indan-2-yl)-5-methoxy-2-(5-methylthien-2-yl)benzamide], the pKi was greater than 6.00.
